This note sets out measurements from US8802664B2 (Bioproject, priority 2010, dated 2014).

Structures are written as SMILES.

In the test the target is T1, human H4 receptor (Homo sapiens, UniProt Q9H3N8).
T1 construct: expressed in transfected cells
T1 sequence (Q9H3N8 whole entry): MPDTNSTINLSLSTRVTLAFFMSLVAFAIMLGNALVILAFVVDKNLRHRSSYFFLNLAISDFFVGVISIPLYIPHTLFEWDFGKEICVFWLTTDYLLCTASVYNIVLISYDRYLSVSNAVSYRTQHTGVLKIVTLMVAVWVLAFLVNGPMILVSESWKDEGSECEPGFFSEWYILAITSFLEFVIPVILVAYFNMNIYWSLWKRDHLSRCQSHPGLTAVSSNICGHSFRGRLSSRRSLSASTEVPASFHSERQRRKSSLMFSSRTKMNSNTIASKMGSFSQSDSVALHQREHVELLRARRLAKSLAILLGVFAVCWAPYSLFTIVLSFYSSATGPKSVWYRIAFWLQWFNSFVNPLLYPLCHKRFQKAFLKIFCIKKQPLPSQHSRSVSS
The experiment in a line: [3H]Histamine binding on membranes of CHO cells stably expressing human H4 receptor. The gist of the method:
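Nonspecific binding defined with 10 μM JNJ 7777120. Bound radioactivity collected on polyethyleneimine-treated GF/B filters and counted by liquid scintillation.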
`CSc1cccc(C(OC2CCN(C)CC2)c2nc3ccccc3s2)c1` (centres unmarked) [Example 201, 2-[(1-methylpiperidin-4-yloxy)(3-methylsulfanyl-phenyl)methyl]benzothiazole]: the Ki or IC50 activity class is less than 30 nM.

Take `CSc1cccc(C(OC2CCN(C)CC2)c2nc3ccccc3[nH]2)c1` (centres unmarked) [Example 202, 2-[(1-methylpiperidin-4-yloxy)(3-methylsulfanyl-phenyl)methyl]-1H-benzimidazole]: the Ki or IC50 activity class is less than 30 nM.

`CN1CCC(OC(c2cccc(S(C)(=O)=O)c2)c2nc3ccccc3s2)CC1` (centres unmarked) [Example 203, 2-[(3-methanesulfonylphenyl)(1-methylpiperidin-4-yloxy)methyl]benzothiazole] showed a Ki or IC50 activity class of less than 1000 nM.

Take `CN1CCC(OC(c2cccc(C=CC(=O)OC(C)(C)C)c2)c2nc3ccccc3s2)CC1` (centres unmarked) [Example 205, 3-{3-[benzothiazol-2-yl(1-methylpiperidin-4-yloxy)methyl]phenyl}acrylic acid tert-butyl ester]: the Ki or IC50 activity class was less than 1000 nM.

`CCOC(=O)c1cccc(C(OC2CCN(C)CC2)c2nc3ccccc3s2)c1` (centres unmarked) [Example 206, 3-[benzothiazol-2-yl(1-methylpiperidin-4-yloxy)methyl]benzoic acid ethyl ester] came in with a Ki or IC50 activity class of less than 300 nM.

The molecule `CN1CCC(OC(c2cccc(CO)c2)c2nc3ccccc3s2)CC1` (centres unmarked) [Example 207, {3-[benzothiazol-2-yl(1-methylpiperidin-4-yloxy)methyl]phenyl}methanol] gave a Ki or IC50 activity class of less than 1000 nM.

As for `CN1CCC(OC(c2cccc(CCC(=O)OC(C)(C)C)c2)c2nc3ccccc3s2)CC1` (centres unmarked) [Example 208, 3-{3-[benzothiazol-2-yl(1-methylpiperidin-4-yloxy)methyl]phenyl}propionic acid tert-butyl ester], the Ki or IC50 activity class was less than 300 nM.

For the molecule `CN1CCC(OC(c2cccc(C=CS(=O)(=O)c3ccccc3)c2)c2nc3ccccc3s2)CC1` (centres unmarked) [Example 209, 2-[[3-(2-benzenesulfonylvinyl)phenyl](1-methylpiperidin-4-yloxy)methyl]benzothiazole], the Ki or IC50 activity class was less than 300 nM.

For the molecule `COc1ccc(-c2cccc(C(NC3CCN(C)CC3)c3nc4ccccc4s3)c2)cc1` (centres unmarked) [Example 211, [benzothiazol-2-yl(4′-methoxybiphenyl-3-yl)methyl](1-methylpiperidin-4-yl)amine], the Ki or IC50 activity class is less than 300 nM.

Consider `CN1CCC(OC(c2cccc(C=CS(C)(=O)=O)c2)c2nc3ccccc3s2)CC1` (centres unmarked) [Example 212, 2-[[3-(2-methanesulfonylvinyl)phenyl](1-methylpiperidin-4-yloxy)methyl]benzothiazole], for which the Ki or IC50 activity class is less than 1000 nM.

Turning to `Cc1ccc(C(OC2CCN(C)CC2)c2nc3ccccc3[nH]2)c(Cl)c1` (centres unmarked) [Example 213, 2-[(2-chloro-4-methylphenyl)(1-methylpiperidin-4-yloxy)methyl]-1H-benzimidazole], the Ki or IC50 activity class was less than 300 nM.

As for `CN1CCC(OC(c2cccc(SC(C)(C)C)c2)c2nc3ccccc3[nH]2)CC1` (centres unmarked) [Example 215, 2-[(3-tert-butylsulfanylphenyl)(1-methylpiperidin-4-yloxy)methyl]-1H-benzimidazole], the Ki or IC50 activity class was less than 300 nM.

`CN1CCC(OC(c2cccc(C=CC#N)c2)c2nc3ccccc3s2)CC1` (centres unmarked) [Example 217, 3-{3-[benzothiazol-2-yl(1-methylpiperidin-4-yloxy)methyl]phenyl}acrylonitrile] came in with a Ki or IC50 activity class of less than 300 nM.

`CN1CCC(OC(c2cccc(C(=O)N(C)Cc3ccccc3)c2)c2nc3ccccc3s2)CC1` (centres unmarked) [Example 219, 3-[benzothiazol-2-yl(1-methylpiperidin-4-yloxy)methyl]-N-benzyl-N-methylbenzamide] came in with a Ki or IC50 activity class of less than 1000 nM.

`CN1CCC(OC(c2nc3ccccc3[nH]2)c2ccc(F)cc2F)CC1` (centres unmarked) [Example 221, 2-[(2,4-difluorophenyl)(1-methylpiperidin-4-yloxy)methyl]-1H-benzimidazole]: the Ki or IC50 activity class was less than 300 nM.

In the case of `CN1CCC(OC(c2cccc(C(=O)N(C)c3ccccc3)c2)c2nc3ccccc3s2)CC1` (centres unmarked) [Example 223, 3-[benzothiazol-2-yl(1-methylpiperidin-4-yloxy)methyl]-N-methyl-N-phenylbenzamide], the Ki or IC50 activity class was less than 300 nM.

The molecule `CN1CCC(OC(c2cccc(Cl)c2)c2nc3ccccc3[nH]2)CC1` (centres unmarked) [Example 225, 2-[(3-chlorophenyl)(1-methylpiperidin-4-yloxy)methyl]-1H-benzimidazole] registered a Ki or IC50 activity class of less than 300 nM.

The molecule `CN1CCC(OC(c2ccc(Cl)cc2)c2nc3ccccc3[nH]2)CC1` (centres unmarked) [Example 226, 2-[(4-chlorophenyl)(1-methylpiperidin-4-yloxy)methyl]-1H-benzimidazole] displayed a Ki or IC50 activity class of less than 300 nM.

As to `CN1CCC(OC(c2cccc(C#CCO)c2)c2nc3ccccc3s2)CC1` (centres unmarked) [Example 227, 3-{3-[benzothiazol-2-yl(1-methylpiperidin-4-yloxy)methyl]phenyl}prop-2-yn-1-ol], the Ki or IC50 activity class is less than 30 nM.

`CN1CCC(OC(c2cccc(OCc3cccc(N)c3)c2)c2nc3ccccc3s2)CC1` (centres unmarked) [Example 228, 3-{3-[benzothiazol-2-yl(1-methylpiperidin-4-yloxy)methyl]phenoxymethyl}phenylamine] came in with a Ki or IC50 activity class of less than 30 nM.

For `CN1CCC(OC(c2cccc(SCCc3cnccn3)c2)c2nc3ccccc3[nH]2)CC1` (centres unmarked) [Example 232, 2-{(1-methylpiperidin-4-yloxy)[3-(2-pyrazin-2-yl-ethylsulfanyl)phenyl]methyl}-1H-benzimidazole], the Ki or IC50 activity class is less than 1000 nM.

In turn, `CN1CCC(OC(c2cccc(SCCc3cnccn3)c2)c2nc3ccccc3s2)CC1` (centres unmarked) [Example 233, 2-{(1-methylpiperidin-4-yloxy)[3-(2-pyrazin-2-yl-ethylsulfanyl)phenyl]methyl}benzothiazole] showed a Ki or IC50 activity class of less than 300 nM.

As to `CN1CCC(OC(c2cccc(NCc3ccccc3)c2)c2nc3ccccc3s2)CC1` (centres unmarked) [Example 234, {3-[benzothiazol-2-yl(1-methylpiperidin-4-yloxy)methyl]phenyl}benzyl-amine], the Ki or IC50 activity class was less than 300 nM.

In the case of `CN1CCC(OC(c2cccc(C#CCCO)c2)c2nc3ccccc3s2)CC1` (centres unmarked) [Example 236, 4-{3-[benzothiazol-2-yl(1-methylpiperidin-4-yloxy)methyl]phenyl}but-3-yn-1-ol], the Ki or IC50 activity class was less than 300 nM.

In turn, `CN1CCC(OC(c2cccc(C#CCCCO)c2)c2nc3ccccc3s2)CC1` (centres unmarked) [Example 237, 5-{3-[benzothiazol-2-yl(1-methylpiperidin-4-yloxy)methyl]phenyl}pent-4-yn-1-ol] had a Ki or IC50 activity class of less than 300 nM.

Molecule `CN1CCC(OC(c2cccc(CCCCO)c2)c2nc3ccccc3s2)CC1` (centres unmarked) [Example 238, 4-{3-[benzothiazol-2-yl(1-methylpiperidin-4-yloxy)methyl]phenyl}butan-1-ol] registered a Ki or IC50 activity class of less than 1000 nM.

As to `COC(=O)CC1(CSc2cccc(C(OC3CCN(C)CC3)c3nc4ccccc4s3)c2)CC1` (centres unmarked) [Example 239, (1-{3-[benzothiazol-2-yl(1-methylpiperidin-4-yloxy)methyl]phenylsulfanylmethyl}-cyclopropyl)acetic acid methyl ester], the Ki or IC50 activity class was less than 1000 nM.

Molecule `CN1CCC(OC(c2cccc(SCCn3nccn3)c2)c2nc3ccccc3s2)CC1` (centres unmarked) [Example 240, 2-{(1-methylpiperidin-4-yloxy)[3-(2-[1,2,3]triazol-2-yl-ethylsulfanyl)phenyl]methyl}benzothiazole] showed a Ki or IC50 activity class of less than 300 nM.

In the case of `CN1CCC(OC(c2cccc(SCCn3ccnn3)c2)c2nc3ccccc3s2)CC1` (centres unmarked) [Example 241, 2-{(1-methylpiperidin-4-yloxy)[3-(2-[1,2,3]triazol-1-yl-ethylsulfanyl)phenyl]methyl}benzothiazole], the Ki or IC50 activity class is less than 300 nM.

The molecule `CN1CCC(OC(c2cccc(SC(C)(C)CCO)c2)c2nc3ccccc3s2)CC1` (centres unmarked) [Example 242, 3-{3-[benzothiazol-2-yl(1-methylpiperidin-4-yloxy)methyl]phenylsulfanyl}-3-methyl-butan-1-ol] gave a Ki or IC50 activity class of less than 1000 nM.

Turning to `CN1CCC(OC(c2cccc(N3CCOCC3)c2)c2nc3ccccc3s2)CC1` (centres unmarked) [Example 243, 2-[(1-methylpiperidin-4-yloxy)(3-morpholin-4-yl-phenyl)methyl]benzothiazole], the Ki or IC50 activity class was less than 300 nM.

Take `CN1CCC(OC(c2cccc(OCCO)c2)c2nc3ccccc3s2)CC1` (centres unmarked) [Example 244, 2-{3-[benzothiazol-2-yl(1-methylpiperidin-4-yloxy)methyl]phenoxy}ethanol]: the Ki or IC50 activity class is less than 300 nM.

`C=Cc1cccc(C(OC2CCN(C)CC2)c2nc3ccccc3[nH]2)c1` (centres unmarked) [Example 245, 2-[(1-methylpiperidin-4-yloxy)(3-vinyl-phenyl)methyl]-1H-benzimidazole] came in with a Ki or IC50 activity class of less than 300 nM.

As for `CN1CCC(OC(c2cccc(SCCCCO)c2)c2nc3ccccc3[nH]2)CC1` (centres unmarked) [Example 248, 4-{3-[(1H-benzimidazol-2-yl)(1-methylpiperidin-4-yloxy)methyl]phenylsulfanyl}butan-1-ol], the Ki or IC50 activity class was less than 300 nM.

In the case of `CN1CCC(OC(c2cccc(SCCN)c2)c2nc3ccccc3[nH]2)CC1` (centres unmarked) [Example 249, 2-{3-[(1H-benzimidazol-2-yl)(1-methylpiperidin-4-yloxy)methyl]phenylsulfanyl}ethylamine], the Ki or IC50 activity class was less than 300 nM.

With `CSCCOc1cccc(C(OC2CCN(C)CC2)c2nc3ccccc3s2)c1` (centres unmarked) [Example 250, 2-{(1-methylpiperidin-4-yloxy)[3-(2-methylsulfanyl-ethoxy)phenyl]methyl}benzothiazole], the Ki or IC50 activity class is less than 300 nM.

Turning to `CN1CCC(OC(c2cccc(SCCCO)c2)c2nc3ccccc3s2)CC1` (centres unmarked) [Example 254, 3-{3-[benzothiazol-2-yl(1-methylpiperidin-4-yloxy)methyl]phenylsulfanyl}propan-1-ol], the Ki or IC50 activity class is less than 30 nM.

The molecule `CC(O)CSc1cccc(C(OC2CCN(C)CC2)c2nc3ccccc3s2)c1` (centres unmarked) [Example 255, 1-{3-[benzothiazol-2-yl(1-methylpiperidin-4-yloxy)methyl]phenylsulfanyl}propan-2-ol] yielded a Ki or IC50 activity class of less than 30 nM.
